Each structure is given as a SMILES string. The source made the active and inactive calls. The rule behind the calls is not given here.

The target of assay [1] is T1, Fatty-acid amide hydrolase 1 (Homo sapiens) (UniProt O00519).
T1 sequence (whole entry): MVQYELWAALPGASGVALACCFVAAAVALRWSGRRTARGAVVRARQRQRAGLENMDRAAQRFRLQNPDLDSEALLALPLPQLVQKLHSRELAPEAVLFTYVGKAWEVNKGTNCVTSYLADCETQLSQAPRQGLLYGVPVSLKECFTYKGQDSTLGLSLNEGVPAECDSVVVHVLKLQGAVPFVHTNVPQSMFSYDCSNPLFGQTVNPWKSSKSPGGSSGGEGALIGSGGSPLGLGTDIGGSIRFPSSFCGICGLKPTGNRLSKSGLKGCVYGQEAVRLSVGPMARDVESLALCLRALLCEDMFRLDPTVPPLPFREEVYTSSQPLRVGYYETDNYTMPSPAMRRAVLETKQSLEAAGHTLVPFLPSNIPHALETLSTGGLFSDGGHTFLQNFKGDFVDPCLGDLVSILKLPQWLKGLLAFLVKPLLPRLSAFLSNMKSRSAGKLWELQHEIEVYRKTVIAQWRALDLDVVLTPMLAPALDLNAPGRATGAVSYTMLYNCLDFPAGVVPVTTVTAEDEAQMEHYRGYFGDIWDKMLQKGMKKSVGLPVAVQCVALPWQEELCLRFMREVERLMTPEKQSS
The assay can be described thus: Inhibition of human recombinant FAAH using AMC arachidonoyl amide as substrate assessed as residual activity at 10 uM by fluorescence assay.

For assay [2], the target named is T2, Prostaglandin G/H synthase 2 (Homo sapiens) (UniProt P35354).
T2 sequence (whole entry): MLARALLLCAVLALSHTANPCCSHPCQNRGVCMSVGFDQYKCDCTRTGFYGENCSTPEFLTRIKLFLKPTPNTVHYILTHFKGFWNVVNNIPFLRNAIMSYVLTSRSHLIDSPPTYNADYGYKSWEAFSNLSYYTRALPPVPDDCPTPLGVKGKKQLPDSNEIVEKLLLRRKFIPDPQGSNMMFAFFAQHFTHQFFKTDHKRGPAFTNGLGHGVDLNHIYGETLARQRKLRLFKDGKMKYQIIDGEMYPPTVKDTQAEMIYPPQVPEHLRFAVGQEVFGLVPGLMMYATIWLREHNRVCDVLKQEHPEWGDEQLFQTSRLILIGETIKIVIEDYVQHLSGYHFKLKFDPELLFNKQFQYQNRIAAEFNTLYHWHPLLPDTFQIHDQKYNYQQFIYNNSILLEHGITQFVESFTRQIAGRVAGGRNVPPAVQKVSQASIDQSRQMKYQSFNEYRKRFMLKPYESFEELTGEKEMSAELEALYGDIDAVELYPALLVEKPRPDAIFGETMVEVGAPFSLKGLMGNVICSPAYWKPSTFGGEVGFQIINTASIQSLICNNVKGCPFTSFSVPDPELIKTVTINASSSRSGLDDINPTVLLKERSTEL
Briefly: Inhibition of human recombinant COX2 assessed as inhibition of ADHP to fluorescent resorufin conversion measured as residual activity at 10 uM by fluorescence assay.

Assay [3] has as its target T3, Transient receptor potential cation channel subfamily V member 1 (Homo sapiens, UniProt Q8NER1). The assay can be described thus: Inhibition of human TRPV1 overexpressed in BEAS-2B cells assessed as calcium flux after 30 mins by Fluo-4 AM fluorescence assay. It is filed as cell-based. On the technique in general: A change in cytosolic calcium serves as a functional read-out for many receptors and channels.

For assay [4], the target named is T3, Transient receptor potential cation channel subfamily V member 1. Briefly: Inhibition of human TRPV1 overexpressed in BEAS-2B cells assessed as residual activity at 50 uM after 30 mins by Fluo-4 AM fluorescence assay. It counts as cell-based.
Assay [5] has the same target. Briefly: Inhibition of human TRPV1 overexpressed in BEAS-2B cells assessed as residual activity at 250 uM after 30 mins by Fluo-4 AM fluorescence assay. It counts as cell-based.
The target of assay [6] is T1, Fatty-acid amide hydrolase 1 (Homo sapiens). The assay can be described thus: Inhibition of human recombinant FAAH using AMC arachidonoyl amide as substrate assessed as residual activity at 50 uM by fluorescence assay.
The target in assay [7] is T4, Prostaglandin G/H synthase 2 (Homo sapiens, UniProt P35354).
T4 sequence (P35354 whole entry): T2 sequence (whole entry)
The assay can be described thus: Inhibition of human recombinant COX2 assessed as inhibition of ADHP to fluorescent resorufin conversion by fluorescence assay.

Assay [8] concerns the target T5, Fatty-acid amide hydrolase 1 (Homo sapiens, UniProt O00519).
T5 sequence (O00519 whole entry): T1 sequence (whole entry)
The assay can be described thus: Inhibition of human recombinant FAAH using AMC arachidonoyl amide as substrate by fluorescence assay.

In assay [9] the target is T3, Transient receptor potential cation channel subfamily V member 1. Briefly: Inhibition of human TRPV1 overexpressed in BEAS-2B cells at 10 uM after 30 mins by Fluo-4 AM fluorescence assay. It is filed as cell-based.
The target is the same in assay [10]. Briefly: Stimulation of human TRPV1 overexpressed in BEAS-2B cells at >10 uM after 30 mins by Fluo-4 AM fluorescence assay. It is filed as cell-based.

T3 sequence (Q8NER1 whole entry): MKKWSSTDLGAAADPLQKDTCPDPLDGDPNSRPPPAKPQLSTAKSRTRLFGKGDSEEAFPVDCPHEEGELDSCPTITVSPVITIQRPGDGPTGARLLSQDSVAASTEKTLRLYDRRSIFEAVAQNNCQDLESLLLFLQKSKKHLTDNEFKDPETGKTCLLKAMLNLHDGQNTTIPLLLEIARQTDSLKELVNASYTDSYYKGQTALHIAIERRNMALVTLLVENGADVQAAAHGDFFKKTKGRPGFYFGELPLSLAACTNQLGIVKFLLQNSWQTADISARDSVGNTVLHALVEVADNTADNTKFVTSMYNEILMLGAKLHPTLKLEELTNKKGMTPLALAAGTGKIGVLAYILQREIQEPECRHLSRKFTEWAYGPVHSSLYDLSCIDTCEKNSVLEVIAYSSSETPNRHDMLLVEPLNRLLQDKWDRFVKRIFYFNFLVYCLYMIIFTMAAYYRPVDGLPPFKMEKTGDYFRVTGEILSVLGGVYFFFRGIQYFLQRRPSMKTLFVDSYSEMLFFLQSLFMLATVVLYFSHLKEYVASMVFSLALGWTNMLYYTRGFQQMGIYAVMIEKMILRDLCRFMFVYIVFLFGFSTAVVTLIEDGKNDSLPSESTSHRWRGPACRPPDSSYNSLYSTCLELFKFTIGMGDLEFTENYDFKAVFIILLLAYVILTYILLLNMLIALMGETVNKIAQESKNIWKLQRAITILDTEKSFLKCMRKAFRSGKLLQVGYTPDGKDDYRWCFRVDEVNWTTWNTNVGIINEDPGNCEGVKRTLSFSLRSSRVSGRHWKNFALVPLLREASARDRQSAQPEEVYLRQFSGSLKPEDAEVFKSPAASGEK

In general, IC50 refers to the point on the concentration scale where inhibition reaches its midpoint. In the case of `COc1ccc2c(c1)c(CC(=O)NCCc1c[nH]c3ccc(O)cc13)c(C)n2C(=O)c1ccc(Cl)cc1`, the figures for the Activity in assay [1] and in assay [2] were 94% and 7%, respectively. For the same compound, in assay [3], the IC50 was 48 µM.

Turning to `CC(C(=O)O)c1ccc(-c2ccccc2)c(F)c1` (stereo unspecified), the Activity is 103% in assay [4] and 108% in assay [5].

On to `CC(C(=O)O)c1cccc(C(=O)c2ccccc2)c1` (stereo unspecified), for which the Activity in assay [4] came to 103%; in assay [5], 108%.

For `CC(C(=O)NCCc1c[nH]c2ccc(O)cc12)c1cccc(Oc2ccccc2)c1` (stereo unspecified), the Activity came out at 105% in [6] and 49% in assay [2]. Further, the IC50 in [3] turned out to be 8 µM; in assay [7], 7 µM.

With `CC(C(=O)NCCc1c[nH]c2ccc(O)cc12)c1ccc(-c2ccccc2)c(F)c1` (stereo unspecified), the figures for the Activity in assay [1] and in assay [2] were 85% and 38%, respectively. Moreover, the IC50 is 15 µM in assay [8], 9 µM in [3] and 8 µM in assay [7].

As to `CC(C)Cc1ccc(C(C)C(=O)NCCc2c[nH]c3ccc(O)cc23)cc1` (stereo unspecified), the Activity in [1] stood at 75%; in assay [2], 42%. The values for the IC50 in [8], in [3] and in assay [7] were 5 µM, 6 µM and 10 µM, respectively.

Regarding `COc1ccc2c(c1)c(CC(=O)O)c(C)n2C(=O)c1ccc(Cl)cc1`, the Activity in assay [4] amounted to 98%; in assay [5] it was 82%.

For orientation: inhibition means the share of the control response that was lost under treatment. A higher inhibition goes with a strong effect. Consider `O=C(NCCc1c[nH]c2ccc(O)cc12)c1ccccc1Nc1cccc(C(F)(F)F)c1`, for which the results for the Activity in assay [1] and in [2] were 107% and 38%, respectively. In addition, the inhibition in assay [9] is 40%. In assay [10], the outcome was Active. The IC50 in assay [3] came out at 10 µM.

Regarding `CC(C(=O)NCCc1c[nH]c2ccc(O)cc12)c1cccc(C(=O)c2ccccc2)c1` (stereo unspecified), the values for the Activity in [1] and in assay [2] were 88% and 51%, respectively. In addition, the IC50 in assay [3] came out at 45 µM.

With `CCCCC/C=C\C/C=C\C/C=C\C/C=C\CCCC(=O)NCCc1c[nH]c2ccc(O)cc12`, the Activity stood at 78% in assay [1] and 66% in [2]. In addition, the IC50 in assay [8] came out at 16 µM; in assay [3], 10 µM; in [7] it was 5 µM.

Consider `CC(=O)Oc1ccccc1C(=O)NCCc1c[nH]c2ccc(O)cc12`, for which the values for the Activity in [1] and in [2] were 99% and 60%, respectively. Further, the 50% inhibitory concentration (IC50) in assay [3] stood at 203 µM.

With `O=C(Cc1ccccc1Nc1c(Cl)cccc1Cl)NCCc1c[nH]c2ccc(O)cc12`, the Activity amounted to 98% in [1] and 43% in [2]. For the same compound, the half-inhibitory concentration (IC50) in assay [3] was determined as 19 µM.

For `CC(C)Cc1ccc(C(C)C(=O)O)cc1` (stereo unspecified), the figures for the Activity in assay [4] and in assay [5] were 103% and 112%, respectively.

Take `O=C(c1ccccc1)c1ccc2n1CCC2C(=O)O` (stereo unspecified): the Activity in [4] was 96%; in [5], 110%.

As to `COc1ccc2cc([C@H](C)C(=O)O)ccc2c1`, the Activity amounted to 107% in assay [4] and 109% in [5].

Consider `COc1ccc2cc([C@H](C)C(=O)NCCc3c[nH]c4ccc(O)cc34)ccc2c1`, for which the Activity in assay [6] came out at 73%; in assay [2], 48%. Moreover, the IC50 in assay [3] was found to be 13 µM; in assay [7], 18 µM.

Consider `O=C(c1ccccc1)c1ccc2n1CCC2C(=O)NCCc1c[nH]c2ccc(O)cc12` (stereo unspecified), for which the figures for the Activity in assay [1] and in [2] were 98% and 43%, respectively. Besides, the IC50 in assay [3] is 70 µM.

In the case of `CC(=O)Oc1ccccc1C(=O)O`, the Activity came to 84% in assay [4] and 91% in [5].

Consider `O=C(O)Cc1ccccc1Nc1c(Cl)cccc1Cl`, for which the Activity stood at 61% in assay [4] and 49% in assay [5].

For the compound `O=C(NCCc1c[nH]c2ccc(O)cc12)c1ccccc1O`, the Activity in assay [1] stood at 101%; in assay [2], 51%. The IC50 in assay [3] was 70 µM.

Consider `O=C(O)c1ccccc1Nc1cccc(C(F)(F)F)c1`, for which the Activity in [4] was determined as 66%; in assay [5] it was 36%.

Regarding `CC(C(=O)O)c1cccc(Oc2ccccc2)c1` (stereo unspecified), the Activity in assay [4] is 104%; in assay [5], 121%.

Source of the values: ChEMBL document CHEMBL3351449, “Inhibition of FAAH, TRPV1, and COX2 by NSAID-serotonin conjugates” (Bioorg Med Chem Lett, 2014).
